According to patent US20220118057A1, “ALBUMIN NANOPARTICLES, THE MAKING METHOD, AND USES THEREOF” (NOVAGENESIS THERAPEUTIX (HK) LIMITED, priority 2019, published 2022):
Values belong to the molecule of their own block, whether it stands above or below them.

How the values were obtained:
MIA PaCa-2 control [1] = assay: BSA macropinocytosis (6-TAMRA-BSA uptake), flow cytometry and confocal microscopy; format: cell-based, human; conditions: 75 μM EIPA pretreatment 30 minutes
Method: (§1) 4 pancreatic cancer cell lines, MIA PaCa-2 control, MIA PaCa-2 KRAS KD, BxPC-3 control and BxPC-3 KRAS^G12V (10^5 cells per well, 1 mL) were inoculated in a 12-well microplate (Corning, N.Y., USA) and incubated at 37° C. and 5% CO2. When the cell density reached approximately 65%, the cell culture medium was replaced with a serum-free culture medium. After 12 hours, the culture medium was removed again and replaced with DMEM containing 1 mg/mL 6-TAMRA-BSA (500 μL/well). After incubated for another 4 hours, the cells were washed, digested and suspended in PBS (400 μL) and subjected to fluorescence analysis on a flow cytometer (BD, FACS Calibur, USA) using a 544 nm laser excitation and a 575 nm emission filter. Based on forward scattering and side scattering analysis, viable cells (10,000 cells/sample) were counted to detect the fluorescence intensity of the cells. For the EIPA (a known macropinocytosis inhibitor) inhibition experiment, cells were incubated with serum-free culture medium for 12 hours, pretreated with 75 μM of EIPA for 30 minutes, then replaced with fresh DMEM containing 1 mg/ml 6-TAMRA-BSA was added (500 μL/well).
(§2) Cells were cultured and treated as described above and grown on coverslips. After cell nuclei were stained with DAPI, the cells grown on the coverslips were observed under a multiphoton confocal Ti-E A1RMP inverted microscope (Nikon, Japan).

BxPC-3 KRAS^G12V = assay: as above; format: cell-based, human; conditions: 75 μM EIPA pretreatment 30 minutes
Method: as §1, §2

BxPC-3 control = assay: as above; format: cell-based, human; conditions: 75 μM EIPA pretreatment 30 minutes
Method: as §1, §2

MIA PaCa-2 KRAS KD = assay: as above; format: cell-based, human; conditions: 75 μM EIPA pretreatment 30 minutes
Method: as §1, §2

[2] = Pharmacokinetics of dC3 and β-lap after intravenous injection; format: in vivo, Sprague Dawley rats; conditions: Sprague Dawley, rat, plasma, 50 mg/kg (β-lap equivalent dose), β-lap once converted from dC3, read-out: pharmacokinetic half-life
Method: The comparison of pharmacokinetics of different preparations in Sprague Dawley rats (n=3 per group) was performed. […] The blood samples were centrifuged at 4° C. and 1000 rpm for 3 minutes. The plasma concentrations of β-lap and dC3 were analyzed by LC-MS/MS (AB Sciex QTRAP 5500, USA).

SW1990 (KRAS^G12D) = assay: In vitro cytotoxicity, MTS assay; format: cell-based
Method: (§3) Briefly, four pancreatic cancer cell lines were firstly inoculated into a 96-well culture plate (4000 cells/well), each well containing 0.1 mL of cell culture medium. […] PLE (1 U/mL) was added concurrently with the dC3 preparation. The cells were further incubated for 12 hours, then the culture medium containing drugs was removed and new culture medium without drug was added. Relative survival curves of the four pancreatic cancer cell lines were obtained using the MTS assay (Promega, USA). The mean value of 6 wells per treatment was calculated and the treatment/control (T/C) value was calculated as a percentage of cell survival rate. All calculations were performed by GraphPad Prism 7 software (GraphPad Software, USA).
(§4) The relative survival profiles of pancreatic cancer cells SW1990 (KRAS^G12D) and SW1990/GEM (KRAS^G12D) were also measured using the same method. SW1990/GEM was cultured in a culture medium with 50 μM gemcitabine to maintain drug resistance.

SW1990/GEM (KRAS^G12D) = assay: In vitro cytotoxicity, MTS assay; format: cell-based
Method: as §3, §4

MIA PaCa-2 control [3] = assay: In vitro cytotoxicity, MTS assay; format: cell-based, human; conditions: PLE 1 U/mL; slightly higher than β-lap
Description: KRAS mutant cells MIA PaCa-2 (KRAS^G12C) and KRAS wild-type (KRAS^WT) BxPC-3 were selected for experiments. The expression levels of mutant KRAS in MIA PaCa-2 and BxPC-3 cells were manipulated. According to the supplier's protocol, MIA PaCa-2 cells with low expression level of KRAS were realized by lentiviral-mediated construction and transfection of pCDH-KRas-shRNA; control MIA PaCa-2 cells were realized by lentiviral-mediated transfection of pCDH vector; BxPC-3 cells with high expression level of KRAS were realized by lentiviral-mediated construction and transfection of pCDH-KRas-G12V, and control BxPC-3 cells were realized by lentiviral-mediated transfection of pCDH vector. All plasmids were purchased from […] Addgene (USA). The plasmid was transfected into the cells using transfection reagents (Promega, USA). 1 μg/mL puromycin was added to the culture medium for 48 hours to select stable transfected cell lines. Cells were represented as MIA PaCa-2 control, MIA PaCa-2 KRAS KD, BxPC-3 control and BxPC-3 KRAS^G12V.
Briefly, four pancreatic cancer cell lines were firstly inoculated into a 96-well culture plate (4000 cells/well), each well containing 0.1 mL of cell culture medium. […] The mean value of 6 wells per treatment was calculated and the treatment/control (T/C) value was calculated as a percentage of cell survival rate. […]

[4] = Solubility and apparent drug concentration; format: physicochemical
[5] = tested on: porcine liver esterase (PLE); assay: Conversion of dC3 to β-lap at different BSA concentrations; format: in vitro ADME
Method: In order to study the effect of BSA on the conversion of dC3 to β-lap catalyzed by an esterase, dC3 was dissolved in DMSO (final DMSO concentration <0.5%), and then added dropwise to a solution of 1 M sodium salicylate, 1 U/mL porcine liver esterase (PLE) and different concentrations of BSA. The solution was shaken in a water bath at 60 rpm at 37° C. At predetermined time points (5, 10, 15, 30, 45, 60, 90, and 120 minutes), each 0.5 mL of release medium were taken out and replaced with an equal volume of fresh medium. The removed release medium was mixed with 0.5 mL of acetonitrile, and centrifuged for 10 minutes at 10,000 rpm to remove denatured proteins. The concentration of β-lap was analyzed by H PLC.
In order to study whether the effect of BSA on dC3-β-lap conversion catalyzed by an esterase will change in the presence of the polymer, the above-mentioned experiments were also conducted with the amount of PEG5K-β-PLA5K proportional to micelle preparation. Other conditions remained unchanged.

- effect on BSA uptake (MIA PaCa-2 KRAS KD): almost had no effect
SMILES: CCN(c1nc(N)c(C(=O)N=C(N)N)nc1Cl)C(C)C [EIPA, 5-[N-ethyl-N-isopropyl] amiloride]
- effect on 6-TAMRA-BSA uptake (macropinocytosis) (MIA PaCa-2 control [1]): can be inhibited
- effect on 6-TAMRA-BSA uptake (macropinocytosis) (BxPC-3 KRAS^G12V): can be inhibited
- effect on BSA uptake (BxPC-3 control): almost had no effect

SMILES: CC1(C)CCC2=C(O1)c1ccccc1C(=O)C2=O [β-lap, β-lapachone]
- half-life [2]: ~24 min
- inhibition of cells (SW1990 (KRAS^G12D)): effectively inhibit
- inhibition of cells (SW1990/GEM (KRAS^G12D)): effectively inhibit

- solubility [4]: < 0.1 µg/mL
- dC3-β-lap conversion ratio ([5]; BSA introduced at a low BSA-dC3 ratio, PLE): significantly reduced
- dC3-β-lap conversion ([5]; BSA plus small amount of PEG-b-PLA proportional to micelle preparation): accelerated
SMILES: CCC(=O)Oc1c2c(c3ccccc3c1OC(=O)CC)OC(C)(C)CC2 [dC3]
- IC50 values, compared among dC3 treatments (MIA PaCa-2 control [3]): comparable
